One series has as its system Oryza sativa. As to the kind of experiment: Phytotoxicity against two-leaf stage paddy Oryza sativa (rice) seedlings assessed as induction of crop damage after 28 days post compound application. The format is organism-based. As to conditions: in vivo, 672 h.
Another series relates to Pontederia vaginalis. In words: Herbicidal activity against Monochoria vaginalis assessed as induction of crop damage after 28 days post compound application. It is filed as functional.
Another series deals with Echinochloa oryzicola. As to the kind of experiment: Herbicidal activity against Echinochloa oryzicola assessed as induction of crop damage after 28 days post compound application. The format is functional.
The subject of series [1] is Schoenoplectiella juncoides. As to the kind of experiment: Herbicidal activity against Schoenoplectiella juncoides subsp. Hotarui (Ohwi) T. Koyama assessed as induction of crop damage after 28 days post compound application. It is filed as functional.

For 39 compounds, ED20 and ED90 results are on record in ChEMBL document CHEMBL3046461, “Synthesis and herbicidal activity of sulfonanilides having a pyrimidinyl-containing group at the 2-position” (J Pestic Sci, 2011).

Each structure is given as a SMILES string.

For the compound `COc1cc(OC)nc(C(O)c2ccccc2NS(=O)(=O)C(F)F)n1` (stereo unspecified), the ED20 with Oryza sativa was determined as 63 gAi/ha; in the series on Echinochloa oryzicola, 250 gAi/ha. Besides, the ED90 is 4 gAi/ha in the series with Pontederia vaginalis and 16 gAi/ha in series [1].
In the same order, the values of `COc1cc(OC)nc(C(c2ccccc2NS(=O)(=O)C(F)(F)F)N(C)C)n1` (stereo unspecified) are 250 gAi/ha, above 1000 gAi/ha, 63 gAi/ha and 16 gAi/ha.
The like results for `COc1cc(OC)nc(C(O)c2c(F)cccc2NS(=O)(=O)C(F)F)n1` (stereo unspecified) were, in that order, 16 gAi/ha, 63 gAi/ha, 16 gAi/ha and 16 gAi/ha.
As to `COc1cc(OC)nc(C(O)c2ccccc2NS(C)(=O)=O)n1` (stereo unspecified), the figures for the ED20 with Oryza sativa and in the series on Echinochloa oryzicola were 63 gAi/ha and 1000 gAi/ha, respectively. Besides, the ED90 is listed as 250 gAi/ha in the series on Pontederia vaginalis and above 1000 gAi/ha in series [1].
As to `CCSC(c1nc(OC)cc(OC)n1)c1ccccc1NS(=O)(=O)C(F)(F)F` (stereo unspecified), the ED20 is 63 gAi/ha in the series on Oryza sativa and 1000 gAi/ha in the series with Echinochloa oryzicola. Also, the ED90 with Pontederia vaginalis amounted to 16 gAi/ha; in series [1] it was 4 gAi/ha.
The like results for `COc1cc(OC)nc(C(O)c2cccc(Oc3ccccc3)c2NS(=O)(=O)C(F)F)n1` (stereo unspecified) were, in that order, 1000 gAi/ha, above 1000 gAi/ha, 250 gAi/ha and above 1000 gAi/ha.
In the same order, the values of `CCOc1cccc(C(O)c2nc(OC)cc(OC)n2)c1NS(=O)(=O)C(F)F` (stereo unspecified) are 16 gAi/ha, 63 gAi/ha, 16 gAi/ha and 16 gAi/ha.
Turning to `CCc1cccc(C(O)c2nc(OC)cc(OC)n2)c1NS(=O)(=O)C(F)F` (stereo unspecified), the values for the ED20 with Oryza sativa and in the series with Echinochloa oryzicola were 63 gAi/ha and 16 gAi/ha, respectively. The values for the ED90 (in the series on Pontederia vaginalis; in series [1]) were 16 gAi/ha and 4 gAi/ha, respectively.
As for `COc1cc(OC)nc(C(O)c2ccccc2NS(=O)(=O)C(C)C)n1` (stereo unspecified), the ED20 in the series with Oryza sativa is reported as 1000 gAi/ha; with Echinochloa oryzicola, above 1000 gAi/ha. Moreover, the results for the ED90 (in the series with Pontederia vaginalis; in series [1]) were 1000 gAi/ha and above 1000 gAi/ha, respectively.
With `COc1cc(OC)nc(C(Cl)c2ccccc2NS(=O)(=O)C(F)(F)F)n1` (stereo unspecified), the ED20 amounted to 63 gAi/ha with Oryza sativa and 1000 gAi/ha in the series on Echinochloa oryzicola. The figures for the ED90 (in the series with Pontederia vaginalis; in series [1]) were 16 gAi/ha and 4 gAi/ha, respectively.
The like results for `COc1cc(OC)nc(C(OC(C)=O)c2ccccc2NS(=O)(=O)C(F)(F)F)n1` (stereo unspecified) were, in that order, 63 gAi/ha, above 1000 gAi/ha, 16 gAi/ha and 4 gAi/ha.
For `COc1cc(OC)nc(C(O)c2ccc(C)cc2NS(=O)(=O)C(F)F)n1` (stereo unspecified), the results for the ED20 with Oryza sativa and in the series with Echinochloa oryzicola were 16 gAi/ha and 1000 gAi/ha, respectively. Further, the ED90 (in the series with Pontederia vaginalis; in series [1]) was 16 gAi/ha throughout.
Consider `COc1cc(OC)nc(C(O)c2ccccc2NS(=O)(=O)C(F)(F)F)n1` (stereo unspecified), for which the values for the ED20 in the series on Oryza sativa and with Echinochloa oryzicola were 63 gAi/ha and 1000 gAi/ha, respectively. For the same compound, the ED90 (in the series with Pontederia vaginalis; in series [1]) was 4 gAi/ha each time.
`COc1ccc(C(O)c2nc(OC)cc(OC)n2)c(NS(=O)(=O)C(F)F)c1` (stereo unspecified): the ED20 with Oryza sativa and with Echinochloa oryzicola was 16 gAi/ha each time. Also, the values for the ED90 (in the series on Pontederia vaginalis; in series [1]) were 16 gAi/ha and 63 gAi/ha, respectively.
On to `COc1cc(OC)nc(C(O)c2ccccc2NS(=O)(=O)CC#N)n1` (stereo unspecified), for which the ED20 was found to be 250 gAi/ha in the series on Oryza sativa and 1000 gAi/ha in the series with Echinochloa oryzicola. The results for the ED90 (in the series with Pontederia vaginalis; in series [1]) were 63 gAi/ha and 250 gAi/ha, respectively.
Consider `COc1cc(OC)nc(C(O)c2cccc(C)c2NS(=O)(=O)C(F)F)n1` (stereo unspecified), for which the ED20 in the series on Oryza sativa and in the series on Echinochloa oryzicola was 16 gAi/ha throughout. For the same compound, the ED90 came out at 4 gAi/ha in the series on Pontederia vaginalis and 16 gAi/ha in series [1].
In the case of `COc1cc(OC)nc(C(S)c2ccccc2NS(=O)(=O)C(F)(F)F)n1` (stereo unspecified), the ED20 in the series with Oryza sativa was 250 gAi/ha; in the series on Echinochloa oryzicola it was above 1000 gAi/ha. For the same compound, the ED90 (in the series on Pontederia vaginalis; in series [1]) was 63 gAi/ha in each case.
Take `COc1cc(OC)nc(C(O)c2cccc(SC)c2NS(=O)(=O)C(F)F)n1` (stereo unspecified): the ED20 in the series with Oryza sativa came out at 63 gAi/ha; in the series on Echinochloa oryzicola, 250 gAi/ha. Further, the ED90 (in the series on Pontederia vaginalis; in series [1]) was 63 gAi/ha throughout.
`COCc1cccc(C(O)c2nc(OC)cc(OC)n2)c1NS(=O)(=O)C(F)F` (stereo unspecified): the ED20 in the series on Oryza sativa is listed as 63 gAi/ha; with Echinochloa oryzicola, 16 gAi/ha. The ED90 (with Pontederia vaginalis; in series [1]) was 4 gAi/ha in each case.
As to `COc1cc(OC)nc(C(OC)c2ccccc2NS(=O)(=O)C(F)(F)F)n1` (stereo unspecified), the ED20 in the series with Oryza sativa and in the series with Echinochloa oryzicola was 63 gAi/ha in each case. Besides, the ED90 in the series with Pontederia vaginalis was 16 gAi/ha; in series [1], 63 gAi/ha.
In the case of `CC[S+]([O-])C(c1nc(OC)cc(OC)n1)c1ccccc1NS(=O)(=O)C(F)(F)F` (stereo unspecified), the ED20 is given as 1000 gAi/ha in the series on Oryza sativa and above 1000 gAi/ha with Echinochloa oryzicola. The ED90 turned out to be 1000 gAi/ha with Pontederia vaginalis and 63 gAi/ha in series [1].
As to `COc1cc(OC)nc(C(O)c2cccc(F)c2NS(=O)(=O)C(F)F)n1` (stereo unspecified), the ED20 with Oryza sativa is recorded as 16 gAi/ha; in the series on Echinochloa oryzicola, 250 gAi/ha. The ED90 (with Pontederia vaginalis; in series [1]) was 4 gAi/ha throughout.
Turning to `COc1ccc(NS(=O)(=O)C(F)F)c(C(O)c2nc(OC)cc(OC)n2)c1` (stereo unspecified), the ED20 in the series on Oryza sativa is listed as 63 gAi/ha; with Echinochloa oryzicola it was above 1000 gAi/ha. The ED90 was 250 gAi/ha in the series on Pontederia vaginalis and above 1000 gAi/ha in series [1].
Regarding `COc1cc(OC)nc(C(O)c2cc(Cl)ccc2NS(=O)(=O)C(F)F)n1` (stereo unspecified), the ED20 is recorded as 1000 gAi/ha with Oryza sativa and above 1000 gAi/ha in the series with Echinochloa oryzicola. The ED90 in the series with Pontederia vaginalis is listed as 1000 gAi/ha; in series [1], above 1000 gAi/ha.
For `COc1cc(OC)nc(C(O)c2ccccc2NS(=O)(=O)CF)n1` (stereo unspecified), the ED20 in the series with Oryza sativa and with Echinochloa oryzicola was 63 gAi/ha throughout. For the same compound, the ED90 (in the series on Pontederia vaginalis; in series [1]) was 16 gAi/ha each time.
With `COc1cc(OC)nc(C(O[Si](C)(C)C)c2ccccc2NS(=O)(=O)C(F)(F)F)n1` (stereo unspecified), the results for the ED20 in the series on Oryza sativa and in the series with Echinochloa oryzicola were 63 gAi/ha and 1000 gAi/ha, respectively. The ED90 (in the series with Pontederia vaginalis; in series [1]) was 4 gAi/ha throughout.
With `COc1cc(OC)nc(C(O)c2ccccc2NS(N)(=O)=O)n1` (stereo unspecified), the ED20 in the series on Oryza sativa is on record as 250 gAi/ha; in the series on Echinochloa oryzicola, 1000 gAi/ha. Moreover, the figures for the ED90 (with Pontederia vaginalis; in series [1]) were 1000 gAi/ha and above 1000 gAi/ha, respectively.
With `CCCc1cccc(C(O)c2nc(OC)cc(OC)n2)c1NS(=O)(=O)C(F)F` (stereo unspecified), the ED20 in the series on Oryza sativa is 63 gAi/ha; in the series on Echinochloa oryzicola, 16 gAi/ha. The ED90 with Pontederia vaginalis is on record as 16 gAi/ha; in series [1], 63 gAi/ha.
`COc1cc(OC)nc(C(=O)c2ccccc2NS(=O)(=O)C(F)(F)F)n1`: the ED20 in the series on Oryza sativa came to 63 gAi/ha; in the series on Echinochloa oryzicola it was 1000 gAi/ha. For the same compound, the ED90 (in the series with Pontederia vaginalis; in series [1]) was 16 gAi/ha in each case.
As to `CCS(=O)(=O)Nc1ccccc1C(O)c1nc(OC)cc(OC)n1` (stereo unspecified), the ED20 in the series on Oryza sativa and with Echinochloa oryzicola was 1000 gAi/ha throughout. Further, the ED90 was 1000 gAi/ha in the series on Pontederia vaginalis and above 1000 gAi/ha in series [1].
Regarding `COc1cc(OC)nc(C(O)c2ccccc2NS(=O)(=O)CCl)n1` (stereo unspecified), the values for the ED20 with Oryza sativa and in the series with Echinochloa oryzicola were 250 gAi/ha and 1000 gAi/ha, respectively. For the same compound, the ED90 in the series with Pontederia vaginalis amounted to 16 gAi/ha; in series [1], 63 gAi/ha.
In the same order, the values of `COc1cc(OC)nc(C(O)c2ccc(Cl)cc2NS(=O)(=O)C(F)F)n1` (stereo unspecified) are 63 gAi/ha, 250 gAi/ha, 63 gAi/ha and 63 gAi/ha.
On to `COc1cc(OC)nc(C(O)c2ccccc2NS(=O)(=O)c2ccccc2)n1` (stereo unspecified), for which the values for the ED20 in the series with Oryza sativa and in the series on Echinochloa oryzicola were 1000 gAi/ha and above 1000 gAi/ha, respectively. In addition, the results for the ED90 (with Pontederia vaginalis; in series [1]) were 1000 gAi/ha and above 1000 gAi/ha, respectively.
`CCCOc1cccc(C(O)c2nc(OC)cc(OC)n2)c1NS(=O)(=O)C(F)F` (stereo unspecified): the ED20 in the series on Oryza sativa is recorded as 63 gAi/ha; in the series on Echinochloa oryzicola, 250 gAi/ha. The ED90 with Pontederia vaginalis was 63 gAi/ha; in series [1] it was 250 gAi/ha.
On to `C/C=N/OC(c1nc(OC)cc(OC)n1)c1ccccc1NS(=O)(=O)C(F)(F)F` (stereo unspecified), for which the ED20 is reported as 63 gAi/ha in the series on Oryza sativa and 1000 gAi/ha in the series on Echinochloa oryzicola. Also, the ED90 in the series with Pontederia vaginalis came to 63 gAi/ha; in series [1], 16 gAi/ha.
Consider `COc1cc(OC)nc(C(O)c2ccccc2NS(=O)(=O)C/C=C/Cl)n1` (stereo unspecified), for which the values for the ED20 with Oryza sativa and in the series on Echinochloa oryzicola were 250 gAi/ha and above 1000 gAi/ha, respectively. In addition, the ED90 came out at 250 gAi/ha with Pontederia vaginalis and 1000 gAi/ha in series [1].
For the compound `COc1cc(OC)nc(C(O)c2cccc(OC)c2NS(=O)(=O)C(F)F)n1` (stereo unspecified), the ED20 turned out to be 4 gAi/ha with Oryza sativa and 16 gAi/ha in the series with Echinochloa oryzicola. Also, the ED90 was 16 gAi/ha in the series with Pontederia vaginalis and 63 gAi/ha in series [1].
For the compound `COc1cc(OC)nc(C(O)c2c(Cl)cccc2NS(=O)(=O)C(F)F)n1` (stereo unspecified), the ED20 is recorded as 1000 gAi/ha in the series on Oryza sativa and above 1000 gAi/ha with Echinochloa oryzicola. Besides, the ED90 with Pontederia vaginalis is 64 gAi/ha; in series [1] it was 250 gAi/ha.
In the same order, the values of `CCS(=O)(=O)C(c1nc(OC)cc(OC)n1)c1ccccc1NS(=O)(=O)C(F)(F)F` (stereo unspecified) are 1000 gAi/ha, above 1000 gAi/ha, 250 gAi/ha and 250 gAi/ha.
